The target of one series is T1, N-type Ca2+ channel (Homo sapiens, UniProt Q00975).
T1 construct: host or cells: IMR-32 cells, differentiated with dibutyryl cAMP and bromodeoxyuridine
The experiment in a line: Measurement of N-type Ca2+ channel blocking potencies in IMR-32 cells using the fluorescent Ca2+ indicator Indo-1. Particulars: for IC50: K+-stimulated Ca2+ flux, 5 μM nitrendipine to block L-type channels; for inhibition at 1 µM: 1 μM compound, read-out: IMR 32 % of Blockade @ 1 μM; for inhibition at 1 µM / inhibition at 10 µM: 5 μM nitrendipine; for inhibition at 10 µM: 10 μM compound, read-out: IMR 32 % of Blockade @ 10 μM. It is filed as cell-based. The method, then: Measurement of N-type Ca^2+ Channel Blocking Potencies of Compounds in IMR-32 Cells Using the Fluorescent Ca^2+Indicator Indo-1
IMR-32 cells are a human tumoral cell line of neural origin. […] Calcium flux into these cells may be induced by stimulation with elevated potassium concentrations. The L-channel component of calcium flux may be blocked by adding 5 μM nitrendipine. The remaining component of calcium entry into the IMR-32 cells is due to calcium flux through N-type calcium channels. Intracellular calcium concentrations are measured using the fluorescent calcium indicator Indo-1. The effect of drug concentration on calcium uptake is studied.
The IMR-32 cell line was obtained from the American Type Culture Collection (Rockville, Md.). Cells were grown in Eagle's Minimum Essential Medium with Earle's salts supplemented with 10% fetal bovine serum, 2 mM L-Gln and antibiotic/antimycotic mixture (Gibco). […] After 7 to 13 days of differentiation, cells were detached using 0.5 mM EDTA and loaded with 5 μM Indo-1 acetoxymethyl ester (Molecular Probes, Eugene, Oreg.) at 30° C. for 45 minutes. Loaded cells were washed twice, resuspended (˜10^7 cells/mL) in assay buffer (10 mM HEPES/Tris pH 7.4 in Hank's Balanced Salt Solution without bicarbonate or phenol red containing 0.5% bovine serum albumin) and kept on ice until use. Fluorescence measurements were carried out in a Photon Technology International (PTI, South Brunswick, N.J.) Model RF-F3004 spectrofluorometer with dual emission monochromators using excitation at […] and emission at 400 and 490 nm. The instrument was equipped with a thermostated cuvette holder with stirring capabilities as well as with a computer-controlled pump which allowed for reagent addition during measurement. Instrument control and data collection was done by PTI's OSCAR software running on an IBM compatible computer. Different concentrations of the test compounds (60 μL in dimethyl sulfoxide) were added to 5.94 mL of assay buffer containing approximately 3×10^6 loaded cells, and 5 μM Nitrendipine (in […] EtOH) to block L-type Ca^2+ channels. Samples were incubated for 10 minutes at 30° C. and then aliquoted into three 10×10 mm disposable acrylic cuvettes. Emission signals at 400 and 490 nm were acquired from each cuvette at 30° C. for 50 seconds. At 20 seconds after the start of reading, cells were depolarized by the addition of 160 μL of stimulation solution (1 M KCl, 68 mM CaCl2) to the cuvette via the computer-controlled pump. Ratio of dual emission signals (400 nm/490 nm), which is proportional to intracellular Ca^2+ concentration, was plotted against time, and the difference between maximal response after stimulation and basal value (before stimulation) was determined. Values obtained in this way were plotted as a function of drug concentration. IC50 values of test compounds were calculated by fitting a four-parameter logistic function to the data using the least squares method.
On the technique in general: Calcium flux is commonly read through the fluorescence of an indicator in the cells.

Another series relates to DBA/2 mice. The experiment in a line: Audiogenic seizure (anticonvulsant) test in DBA/2 mice. It is filed as in vivo. Particulars: Mus musculus, intravenous, sound-induced tonic seizures, tested 15 or 45 minutes after injection, read-out: DBA/2 mice % Protection. The method, then:
In vivo Biological Protocol:
A compound of the present invention was dissolved in water using 10% (weight/volume) Emulphor (GAF Corp., Wayne, N.J.) surfactant. Substances were administered by intravenous injection into the retro-orbital venous sinus. All testing was performed 15 minutes or 45 minutes after drug injection. All the male mice, 3-4 weeks old were obtained from Jackson Laboratories Bar Harbour, Me. Immediately before anticonvulsant testing, mice were placed upon a wire mesh, 4 inches square suspended from a steel rod. The square was slowly inverted through 180 degrees and mice observed for 30 seconds. Any mouse falling from the wire mesh was scored as ataxia.
Mice were placed into an enclosed acrylic plastic chamber (21 cm height, approximately 30 cm diameter) with a high-frequency speaker (4 cm diameter) in the center of the top lid. An audio signal generator (Protek model B-810) was used to produce a continuous sinusoidal tone that was swept linearly in frequency between 8 kHz and 16 kHz once each 10 msec. The average sound pressure level (SPL) during stimulation was approximately 100 dB at the floor of the chamber. Mice were placed within the chamber and allowed to acclimatize for 1 minute. DBA/2 mice in the vehicle-treated group responded to the sound stimulus (applied until tonic extension occurred, or for a maximum of 60 sec) with a characteristic seizure sequence consisting of wild running followed by clonic seizures, and later by tonic extension, and finally by respiratory arrest and death in 80% or more of the mice. In vehicle-treated mice, the entire sequence of seizures to respiratory arrest lasts approximately 15-20 seconds.
The incidence of all the seizure phases in the drug-treated and vehicle-treated mice was recorded, and the occurrence of tonic seizures were used for calculating anticonvulsant ED50 values by probit analysis. Mice were used only once for testing at each time and dose point.

Where a name gives a salt, the structure may show the parent alone.

The results in this text go back to US6495715B2, “Calcium channel blockers” (Warner-Lambert Company, priority 1997, dated 2002).

T1 sequence (Q00975 whole entry): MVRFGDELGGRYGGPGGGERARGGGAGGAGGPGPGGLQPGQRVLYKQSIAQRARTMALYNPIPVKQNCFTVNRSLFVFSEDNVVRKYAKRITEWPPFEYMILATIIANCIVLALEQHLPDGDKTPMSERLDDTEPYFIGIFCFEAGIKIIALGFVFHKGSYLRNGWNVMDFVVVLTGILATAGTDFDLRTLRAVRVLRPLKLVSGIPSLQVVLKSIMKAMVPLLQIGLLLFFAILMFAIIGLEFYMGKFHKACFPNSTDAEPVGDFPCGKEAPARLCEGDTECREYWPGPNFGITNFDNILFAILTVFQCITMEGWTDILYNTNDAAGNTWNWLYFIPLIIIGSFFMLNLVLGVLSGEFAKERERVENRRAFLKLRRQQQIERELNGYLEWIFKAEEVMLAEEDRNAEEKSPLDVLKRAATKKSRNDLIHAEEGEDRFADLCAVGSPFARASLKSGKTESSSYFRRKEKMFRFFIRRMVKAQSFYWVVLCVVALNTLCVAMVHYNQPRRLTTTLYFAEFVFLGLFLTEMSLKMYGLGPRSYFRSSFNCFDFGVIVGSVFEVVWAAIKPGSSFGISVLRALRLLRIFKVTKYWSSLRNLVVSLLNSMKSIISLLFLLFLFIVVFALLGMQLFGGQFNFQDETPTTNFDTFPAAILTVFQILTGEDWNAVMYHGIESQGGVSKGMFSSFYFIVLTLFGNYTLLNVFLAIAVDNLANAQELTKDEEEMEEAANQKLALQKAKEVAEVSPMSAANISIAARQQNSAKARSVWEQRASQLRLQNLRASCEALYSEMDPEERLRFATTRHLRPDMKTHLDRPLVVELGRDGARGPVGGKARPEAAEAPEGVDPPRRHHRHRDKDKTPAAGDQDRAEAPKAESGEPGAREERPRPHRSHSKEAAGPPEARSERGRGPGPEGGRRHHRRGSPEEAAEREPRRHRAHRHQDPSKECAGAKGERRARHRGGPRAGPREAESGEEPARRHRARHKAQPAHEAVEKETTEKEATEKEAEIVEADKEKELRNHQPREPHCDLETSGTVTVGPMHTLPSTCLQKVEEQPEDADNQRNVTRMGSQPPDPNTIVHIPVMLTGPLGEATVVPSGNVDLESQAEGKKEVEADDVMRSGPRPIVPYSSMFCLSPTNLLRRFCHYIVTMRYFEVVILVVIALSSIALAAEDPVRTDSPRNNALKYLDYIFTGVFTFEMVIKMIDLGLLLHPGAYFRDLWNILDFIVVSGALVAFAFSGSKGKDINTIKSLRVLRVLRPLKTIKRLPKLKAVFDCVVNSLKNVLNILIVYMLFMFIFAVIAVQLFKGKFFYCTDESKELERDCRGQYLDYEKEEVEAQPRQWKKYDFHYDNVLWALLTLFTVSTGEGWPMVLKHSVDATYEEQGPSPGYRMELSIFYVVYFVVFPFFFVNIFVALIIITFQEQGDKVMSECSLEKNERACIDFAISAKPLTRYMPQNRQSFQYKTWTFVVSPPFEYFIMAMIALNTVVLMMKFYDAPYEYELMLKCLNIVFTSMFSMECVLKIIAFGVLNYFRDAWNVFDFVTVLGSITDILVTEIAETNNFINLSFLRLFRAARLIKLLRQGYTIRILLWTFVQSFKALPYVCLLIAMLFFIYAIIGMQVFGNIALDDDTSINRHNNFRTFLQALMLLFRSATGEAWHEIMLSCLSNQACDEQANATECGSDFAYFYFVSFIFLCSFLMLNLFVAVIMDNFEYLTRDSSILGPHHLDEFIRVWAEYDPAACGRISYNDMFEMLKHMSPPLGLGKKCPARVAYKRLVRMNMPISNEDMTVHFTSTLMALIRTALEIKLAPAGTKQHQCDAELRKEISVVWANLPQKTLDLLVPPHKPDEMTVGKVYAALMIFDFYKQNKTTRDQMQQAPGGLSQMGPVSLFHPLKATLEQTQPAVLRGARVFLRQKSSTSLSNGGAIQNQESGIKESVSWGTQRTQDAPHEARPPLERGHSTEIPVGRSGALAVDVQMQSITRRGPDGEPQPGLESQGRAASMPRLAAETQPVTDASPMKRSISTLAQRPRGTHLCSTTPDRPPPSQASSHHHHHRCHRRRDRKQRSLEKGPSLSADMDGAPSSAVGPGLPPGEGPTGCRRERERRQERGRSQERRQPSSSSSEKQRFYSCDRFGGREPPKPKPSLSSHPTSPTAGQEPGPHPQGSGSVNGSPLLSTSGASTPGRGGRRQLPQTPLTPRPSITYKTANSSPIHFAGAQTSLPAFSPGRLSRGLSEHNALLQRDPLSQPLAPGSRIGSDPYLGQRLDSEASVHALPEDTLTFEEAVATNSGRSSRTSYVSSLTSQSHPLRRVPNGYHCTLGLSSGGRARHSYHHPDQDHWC
T1 sequence (P54289 25-956 partner limits assumed): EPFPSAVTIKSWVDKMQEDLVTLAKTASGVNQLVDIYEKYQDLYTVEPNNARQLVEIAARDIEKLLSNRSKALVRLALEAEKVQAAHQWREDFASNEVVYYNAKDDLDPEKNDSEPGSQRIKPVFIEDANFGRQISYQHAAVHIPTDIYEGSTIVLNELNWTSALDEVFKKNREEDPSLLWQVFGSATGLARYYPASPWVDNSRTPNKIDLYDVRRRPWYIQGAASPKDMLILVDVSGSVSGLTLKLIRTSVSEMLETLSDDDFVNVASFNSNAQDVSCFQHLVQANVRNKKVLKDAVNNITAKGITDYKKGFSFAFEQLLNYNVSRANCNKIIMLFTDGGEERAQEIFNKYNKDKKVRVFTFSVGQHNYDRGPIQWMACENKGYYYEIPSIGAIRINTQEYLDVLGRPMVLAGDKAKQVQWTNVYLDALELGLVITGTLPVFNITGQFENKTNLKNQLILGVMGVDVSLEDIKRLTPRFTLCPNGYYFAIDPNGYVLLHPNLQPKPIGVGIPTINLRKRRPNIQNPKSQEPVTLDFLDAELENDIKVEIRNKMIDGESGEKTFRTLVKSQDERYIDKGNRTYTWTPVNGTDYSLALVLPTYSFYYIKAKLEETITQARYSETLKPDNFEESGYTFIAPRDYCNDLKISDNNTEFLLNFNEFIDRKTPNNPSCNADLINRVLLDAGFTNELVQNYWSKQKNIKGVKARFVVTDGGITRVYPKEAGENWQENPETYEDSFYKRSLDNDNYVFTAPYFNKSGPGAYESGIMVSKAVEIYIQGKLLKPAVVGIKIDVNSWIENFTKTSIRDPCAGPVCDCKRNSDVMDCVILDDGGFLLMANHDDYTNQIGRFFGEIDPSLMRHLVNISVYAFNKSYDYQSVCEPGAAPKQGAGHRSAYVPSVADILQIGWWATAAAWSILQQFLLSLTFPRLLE
T1 sequence (P54289 957-1103 partner limits assumed): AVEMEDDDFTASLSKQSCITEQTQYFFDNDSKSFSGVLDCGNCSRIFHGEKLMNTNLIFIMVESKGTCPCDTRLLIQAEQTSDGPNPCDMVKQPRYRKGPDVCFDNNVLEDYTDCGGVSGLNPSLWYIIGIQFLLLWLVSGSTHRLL
T1 sequence (Q02641 whole entry partner): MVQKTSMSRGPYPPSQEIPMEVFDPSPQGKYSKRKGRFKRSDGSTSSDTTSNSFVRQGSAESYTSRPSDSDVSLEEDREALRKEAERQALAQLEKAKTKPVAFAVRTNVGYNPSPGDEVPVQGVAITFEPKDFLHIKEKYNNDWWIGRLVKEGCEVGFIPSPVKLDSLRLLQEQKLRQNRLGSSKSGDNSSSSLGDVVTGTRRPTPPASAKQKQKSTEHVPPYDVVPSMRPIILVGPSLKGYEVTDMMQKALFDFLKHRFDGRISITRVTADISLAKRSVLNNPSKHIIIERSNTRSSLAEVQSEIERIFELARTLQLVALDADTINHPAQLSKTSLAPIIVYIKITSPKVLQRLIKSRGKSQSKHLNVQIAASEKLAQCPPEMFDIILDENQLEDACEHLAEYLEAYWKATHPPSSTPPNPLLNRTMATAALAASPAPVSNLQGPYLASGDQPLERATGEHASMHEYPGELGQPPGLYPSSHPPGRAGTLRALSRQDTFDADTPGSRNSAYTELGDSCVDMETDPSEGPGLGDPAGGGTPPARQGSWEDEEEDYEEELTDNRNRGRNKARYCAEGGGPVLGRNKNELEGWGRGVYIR

`CC(C)=CCN(c1ccc(OCc2ccccc2)cc1)C1CCN(C(=O)[C@H](CC(C)C)NC(=O)N2CCCCCC2)CC1` (as salt: hydrochloride) [Example 5, (S)-Azepane-1-carboxylic acid (1-{4-[(4-benzyloxy-phenyl)-(3-methyl-but-2-enyl)-amino]-piperidine-1-carbonyl}-3-methyl-butyl)-amide hydrochloride salt] returned a melting point of 125 to 126 °C.

In turn, `CC(C)=CCN(CCNC(=O)[C@H](CC(C)C)NC(=O)N1CCCCCC1)c1ccc(OCc2ccccc2)cc1` [Example 3, (S)-Azepane-1-carboxylic acid (1-{2-[(4-benzyloxy-phenyl)-(3-methyl-but-2-enyl)-amino]-ethylcarbamoyl}-3-methyl-butyl)-amide] yielded a melting point of 71 °C. At N-type Ca2+ channel, inhibition was half-maximal at 690 nM (IC50).

`CC(C)=CCN(CCCNC(=O)[C@H](CC(C)C)NC(=O)N1CCCCCC1)c1ccc(OCc2ccccc2)cc1` [Example 4, (S)-Azepane-1-carboxylic acid (1-{3-[(4-benzyloxy-phenyl)-(3-methyl-but-2-enyl)-amino]-propylcarbamoyl}-3-methyl-butyl)-amide] came in with a melting point of 48 to 52 °C. Further, the IC50 against N-type Ca2+ channel is 750 nM.

Consider `CC(C)C[C@H](NC(=O)N1CCCCCC1)C(=O)NCCN(c1ccc(OCc2ccccc2)cc1)C1C=CCCC1` (stereo partly drawn) [Example 6, (S)-Azepane-1-carboxylic acid (1-{2-[(4-benzyloxy-phenyl)-cyclohex-2-enyl-amino]-ethylcarbamoyl}-3-methyl-butyl)-amide], for which the melting point is 79 to 80 °C. The molecule further came in with an IC50 against N-type Ca2+ channel of 840 nM.

In the case of `CC(C)C[C@H](NC(=O)N1CCCCCC1)C(=O)NCCN(Cc1ccccc1)c1ccc(OCc2ccccc2)cc1` [Example 7, (S)-Azepane-1-carboxylic acid (1-{2-[benzyl-(4-benzyloxy-phenyl)-amino]-ethylcarbamoyl}-3-methyl-butyl)-amide], the melting point fell in the range of 65 to 66 °C. Besides, the IC50 at N-type Ca2+ channel is 1900 nM.

Consider `CC(C)CCN(c1ccc(NCCC(C)(C)C)cc1)C1CCN(C(=O)[C@H](CC(C)C)NC(=O)N2CCCCCC2)CC1` [Example 36, (S)-Azepane-1-carboxylic acid (1-{4-[[4-(3,3-dimethyl-butylamino)-phenyl]-(3-methyl-butyl)-amino]-piperidine-1-carbonyl}-3-methyl-butyl)-amide], for which, on N-type Ca2+ channel, the IC50 came to 180 nM. The responders at 30 mg/kg in the series with DBA/2 mice was determined as 80%.

`CC(C)CCN(c1ccc(NCCC(C)O)cc1)C1CCN(C(=O)[C@H](CC(C)C)NC(=O)N2CCCCCC2)CC1` (stereo partly drawn) [Example 38, (S)-Azepane-1-carboxylic acid (1-{4-[[4-(3-hydroxy-butylamino)-phenyl]-(3-methyl-butyl)-amino]-piperidine-1-carbonyl}-3-methyl-butyl)-amide] returned an IC50 against N-type Ca2+ channel of 1800 nM. Further, the responders at 30 mg/kg with DBA/2 mice came to 60%.

As for `CC(C)CCN(c1ccc(NCc2ccc(N(C)C)cc2)cc1)C1CCN(C(=O)[C@H](CC(C)C)NC(=O)N2CCCCCC2)CC1` [Example 41, (S)-Azepane-1-carboxylic acid (1-{4-[[4-(4-dimethylamino-benzylamino)-phenyl]-(3-methyl-butyl)-amino]-piperidine-1-carbonyl}-3-methyl-butyl)-amide], the IC50 at N-type Ca2+ channel stood at 490 nM. In addition, in the series on DBA/2 mice, the responders at 30 mg/kg amounted to 20%.

The molecule `CC(C)CCN(c1ccc(NCc2ccc(O)cc2)cc1)C1CCN(C(=O)[C@H](CC(C)C)NC(=O)N2CCCCCC2)CC1` [Example 42, (S)-Azepane-1-carboxylic acid (1-{4-[[4-(4-hydroxy-benzylamino)-phenyl]-(3-methyl-butyl)-amino]-piperidine-1-carbonyl}-3-methyl-butyl)-amide] displayed an IC50 against N-type Ca2+ channel of 690 nM. In addition, the responders at 30 mg/kg in the series with DBA/2 mice stood at 20%.

For `CC(C)CCN(c1ccc(OCc2ccccc2)cc1)C1CCN(C(=O)[C@@H](N)CC(C)C)CC1` [Example 44, (S)-2-Amino-1-{4-[(4-benzyloxy-phenyl)-(3-methyl-butyl)-amino]-piperidin-1-yl}-4-methyl-pentan-1-one], on N-type Ca2+ channel, the inhibition at 1 µM came to 50% and the inhibition at 10 µM was 100%. The responders at 10 mg/kg with DBA/2 mice was 20%.

Consider `CC(C)=CCN(c1ccc(OCc2ccccc2)cc1)C1CCN(C[C@@H](N)CC(C)C)CC1` [Example 47, (S)-[1-(2-Amino-4-methyl-pentyl)-piperidin-4-yl]-(4-benzyloxy-phenyl)-(3-methyl-but-2-enyl)-amine], for which, at N-type Ca2+ channel, the inhibition at 1 µM came out at 44% and the inhibition at 10 µM is 100%. In addition, in the series with DBA/2 mice, the responders at 10 mg/kg amounted to 80%.

As a reminder, the melting point is the temperature, or range, at which the solid turns liquid. For orientation: IC50 means the point on the concentration scale where inhibition reaches its midpoint. A high value points to a need for much substance.
